The results in this text go back to patent US10165775B2, “Pesticidal compositions and processes related thereto” (Dow AgroSciences LLC, priority 2011, dated 2019).

Data set [1] relates to Green Peach Aphid (GPA) (Myrzus persicae) (MYZUPE). The data set can be described thus: Bioassay on green peach aphid (GPA), foliar spray on cabbage seedlings. Conditions: Myzus persicae, 72 h, 200 ppm foliar spray, graded after three days, Abbott corrected % control, read-out: MYZUPE % Ctrl @ 200 ppm. In kind it is in vivo. How it is done: Certain molecules disclosed in this document were tested against GPA using procedures described in the following example. In the reporting of the results, “Table 3: GPA (MYZUPE) and sweetpotato whitefly-crawler (BEMITA) Rating Table” was used (See Table Section).
Cabbage seedlings grown in 3-inch pots, with 2-3 small (3-5 cm) true leaves, were used as test substrate. The seedlings were infested with 20-50 GPA (wingless adult and nymph stages) one day prior to chemical application. Four pots with individual seedlings were used for each treatment. Test compounds (2 mg) were dissolved in 2 mL of acetone/methanol (1:1) solvent, forming stock solutions of 1000 ppm test compound. The stock solutions were diluted 5× with 0.025% Tween 20 in H2O to obtain the solution at 200 ppm test compound. A hand-held aspirator-type sprayer was used for spraying a solution to both sides of […] leaves until runoff. Reference plants (solvent check) were sprayed with the diluent only containing 20% by volume of acetone/methanol (1:1) solvent. Treated plants were held in a holding room for three days at approximately 25° C. and ambient relative humidity (RH) prior to grading. Evaluation was conducted by counting the number of live aphids per plant under a microscope. Percent Control was measured by using Abbott's correction formula (W. S. Abbott. “A Method of Computing the Effectiveness of an Insecticide” J. Econ. Entomol. 18 (1925), pp. 265-267) as follows. Corrected % Control=100*(X−Y)/X • where • X=No. of live aphids on solvent check plants and • Y=No. of live aphids on treated plants
Biological Data for GPA (MYZUPE) and sweetpotato whitefly-crawler (BEMITA)” (See Table Section).

Data set [2] has as its system Sweetpotato whitefly-crawler (Bemisia tabaci) (BEMITA). The data set can be described thus: Insecticidal test for sweetpotato whitefly-crawler in foliar spray assay on cotton plants. In kind it is in vivo. The settings on record: 200 ppm foliar spray, graded after 8-9 days, Abbott corrected % control, read-out: BEMITA % Ctrl @ 200 ppm. How it is done:
Cotton plants grown in 3-inch pots, with 1 small (3-5 cm) true leaf, were used as test substrate. The plants were placed in a room with whitefly adults. Adults were allowed to deposit eggs for 2-3 days. After a 2-3 day egg-laying period, plants were taken from the adult whitefly room. Adults were blown off leaves using a hand-held Devilbiss sprayer (23 psi). Plants with egg infestation (100-300 eggs per plant) were placed in a holding room for 5-6 days at 82° F. and 50% RH for egg hatch and crawler stage to develop. Four cotton plants were used for each treatment. Compounds (2 mg) were dissolved in 1 mL of acetone solvent, forming stock solutions of 2000 ppm. The stock solutions were diluted 10× with 0.025% Tween 20 in H2O to obtain a test solution at 200 ppm. A hand-held Devilbiss sprayer was used for spraying a solution to both sides of cotton leaf until runoff. Reference plants (solvent check) were sprayed with the diluent only. Treated plants were held in a holding room for 8-9 days at approximately 82° F. and 50% RH prior to grading. Evaluation was conducted by counting the number of live nymphs per plant under a microscope. Insecticidal activity was measured by using Abbott's correction formula and presented in “Table 4. Biological Data for GPA (MYZUPE) and sweetpotato whitefly-crawler (BEMITA)” (see column “BEMITA”): Corrected % Control=100*(X−Y)/X • where X=No. of live nymphs on solvent check plants • Y=No. of live nymphs on treated plants Pesticidally Acceptable Acid Addition Salts, Salt Derivatives, Solvates, Ester Derivatives, Polymorphs, Isotopes and Radionuclides

Regarding `C#CCN(C(=O)C(C)SC)c1cn(-c2cccnc2)nc1Cl` (stereo not drawn) [Compound 611, N-(3-chloro-1-(pyridin-3-yl)-1H-pyrazol-4-yl)-2-(methylthio)-N-(prop-2-yn-1-yl)propanamide], the pest or weed control at 200 ppm in data set [1] and in data set [2] was 80 to 100% in each case.

For the compound `CSCC(C)(C)C(=O)N(C)c1cc(-c2cccnc2)nn1C` [Compound 3], the melting point lay within 190 to 193 °C.

Take `C#CCN(C(=O)C(C)C)c1cn(-c2cccnc2)nc1C` [Compound 600]: the melting point lay in the range of 89 to 90 °C. In data set [1], the pest or weed control at 200 ppm fell in the range of 80 to 100%. Moreover, in data set [2], the pest or weed control at 200 ppm is 0 to 80%.

Compound `C#CCN(C(=O)OC(C)(C)C)c1cn(-c2cccnc2)nc1C` [Compound 596] came in with a melting point of 73 to 75 °C. Also, the pest or weed control at 200 ppm in data set [1] is 80 to 100%. Besides, in data set [2], the pest or weed control at 200 ppm lay in the range of 80 to 100%.

For `C#CCN(C(=O)CCSC)c1cn(-c2cccnc2)nc1Cl` [Compound 607], the pest or weed control at 200 ppm in data set [1] and in data set [2] was 80 to 100% in each case.

With `C#CCN(C(=O)C(C)C)c1cn(-c2cncc(F)c2)nc1C` [Compound 603], the melting point lay in the range of 99 to 100 °C. Further, the pest or weed control at 200 ppm in data set [1] lay in the range of 80 to 100%. Further, the pest or weed control at 200 ppm in data set [2] lay within 80 to 100%.

Turning to `C#CCN(C(=O)CCC(F)(F)F)c1cn(-c2cncc(F)c2)nc1C` [Compound 604], the pest or weed control at 200 ppm in data set [1] and in data set [2] was 80 to 100% each time.

Take `C#CCN(C(=O)CCSCCC(F)(F)F)c1cn(-c2cccnc2)nc1Cl` [Compound 626]: the pest or weed control at 200 ppm in data set [1] and in data set [2] was 80 to 100% each time.

Consider `C#CCN(C(=O)CCSC(c1ccccc1)(c1ccccc1)c1ccccc1)c1cn(-c2cccnc2)nc1Cl` [Compound 624], for which the melting point fell in the range of 68 to 70 °C.

For the compound `CC(C)C(=O)Nc1cn(-c2cncc(F)c2)nc1C=O` [Compound 560, N-(1-(5-fluoropyridin-3-yl)-3-formyl-1H-pyrazol-4-yl)isobutyramide], the melting point was 140 to 142 °C.

For the compound `C#CCN(C(=O)CC(SC)C(F)(F)F)c1cn(-c2cccnc2)nc1Cl` (stereo not drawn) [Compound 613, N-(3-chloro-1-(pyridin-3-yl)-1H-pyrazol-4-yl)-4,4,4-trifluoro-3-(methylthio)-N-(prop-2-yn-1-yl)butanamide], the pest or weed control at 200 ppm in data set [1] and in data set [2] was 80 to 100% in each case.

With `C#CCN(C(=O)CCC(C)(F)F)c1cn(-c2cccnc2)nc1Cl` [Compound 614], the pest or weed control at 200 ppm in data set [1] and in data set [2] was 80 to 100% throughout.

As to `C#CCN(C(=O)C(C)CSC)c1cn(-c2cccnc2)nc1C` (stereo not drawn) [Compound 599], the pest or weed control at 200 ppm in data set [1] lay within 80 to 100%; in data set [2] it was 0 to 80%.

Take `C#CCN(C(=O)CSC)c1cn(-c2cccnc2)nc1Cl` [Compound 612]: the melting point was in the range of 65 to 68 °C. For the same compound, the pest or weed control at 200 ppm in data set [1] lay in the range of 80 to 100%. The pest or weed control at 200 ppm in data set [2] lay in the range of 80 to 100%.

`CC(C)C(=O)Nc1cn(-c2cncc(F)c2)nc1CO` [Compound 435, N-(1-(5-fluoropyridin-3-yl)-3-(hydroxymethyl)-1H-pyrazol-4-yl)isobutyramide]: the melting point was 144 to 146 °C.

`C#CCN(C(=O)C(C)CSC)c1cn(-c2cccnc2)nc1Cl` (stereo not drawn) [Compound 608]: the pest or weed control at 200 ppm in data set [1] and in data set [2] was 80 to 100% in each case.

Turning to `C#CCN(C(=O)CC(SC)C1CC1)c1cn(-c2cccnc2)nc1Cl` (stereo not drawn) [Compound 619], the melting point fell in the range of 109 to 112 °C. Further, in data set [1], the pest or weed control at 200 ppm was 80 to 100%. For the same compound, in data set [2], the pest or weed control at 200 ppm lay in the range of 80 to 100%.

Take `C#CCN(C(=O)CCC(F)(F)F)c1cn(-c2cccnc2)nc1Cl` [Compound 609]: the pest or weed control at 200 ppm in data set [1] and in data set [2] was 80 to 100% in each case.

In the case of `C#CCN(C(=O)C(C)CSC)c1cn(-c2cncc(F)c2)nc1C` (stereo not drawn) [Compound 602], the pest or weed control at 200 ppm in data set [1] and in data set [2] was 80 to 100% each time.

In the case of `CC(C)C(=O)Nc1cn(-c2cncc(F)c2)nc1CCl` [Compound 561, N-(3-(chloromethyl)-1-(5-fluoropyridin-3-yl)-1H-pyrazol-4-yl)isobutyramide], the melting point is 172 to 177 °C.

Take `C#CCN(C(=O)CCSC)c1cn(-c2cccnc2)nc1C` [Compound 598]: the pest or weed control at 200 ppm in data set [1] was 80 to 100%; in data set [2] it was 0 to 80%.

In the case of `C#CCN(C(=O)CS(C)(=O)=O)c1cn(-c2cccnc2)nc1Cl` [Compound 621], the pest or weed control at 200 ppm in data set [1] and in data set [2] was 80 to 100% in each case.

`CCN(C(=O)CC(OC)(C(F)(F)F)C(F)(F)F)c1cn(-c2cccnc2)nc1C` [Compound 276, N-ethyl-4,4,4-trifluoro-3-methoxy-N-(3-methyl-1-(pyridin-3-yl)-1H-pyrazol-4-yl)-3-(trifluoromethyl)butanamide] showed a melting point of 83 to 86 °C.

In the case of `C#CCN(C(=O)OC(C)(C)C)c1cn(-c2cncc(F)c2)nc1C` [Compound 601, tert-butyl 1-(5-fluoropyridin-3-yl)-3-methyl-1H-pyrazol-4-yl(prop-2-ynyl)carbamate], the melting point lay within 81 to 82 °C. Further, the pest or weed control at 200 ppm in data set [1] lay within 80 to 100%. Moreover, in data set [2], the pest or weed control at 200 ppm is 80 to 100%.

`Cc1nn(-c2cncc(F)c2)cc1NC(=O)OC(C)(C)C` [Compound 111, tert-butyl 1-(5-fluoropyridin-3-yl)-3-methyl-1H-pyrazol-4-ylcarbamate] registered a melting point of 131.5 to 133 °C.

`CC(C)(C)OC(=O)Nc1cn(-c2cncc(F)c2)nc1C1CC1` [Compound 434, tert-butyl (3-cyclopropyl-1-(5-fluoropyridin-3-yl)-1H-pyrazol-4-yl)carbamate] gave a melting point of 156.5 to 158 °C.

`C#CCN(C(=O)C(SC)C(=O)CSC)c1cn(-c2cccnc2)nc1Cl` (stereo not drawn) [Compound 622]: the pest or weed control at 200 ppm in data set [1] and in data set [2] was 80 to 100% throughout.

In the case of `C#CCN(C(=O)CCSC)c1cn(-c2cncc(F)c2)nc1C` [Compound 605, N-(1-(5-fluoropyridin-3-yl)-3-methyl-1H-pyrazol-4-yl)-3-(methylthio)-N-(prop-2-ynyl)propanamide], the pest or weed control at 200 ppm in data set [1] and in data set [2] was 80 to 100% in each case.

`C#CCN(C(=O)CCC(F)(F)F)c1cn(-c2cccnc2)nc1C` [Compound 597]: the figures for the pest or weed control at 200 ppm in data set [1] and in data set [2] were 80 to 100% and 0 to 80%, respectively.

`C#CCN(C(=O)OC(C)(C)C)c1cn(-c2cccnc2)nc1Cl` [Compound 606, tert-butyl (3-chloro-1-(pyridin-3-yl)-1H-pyrazol-4-yl)(prop-2-yn-1-yl)carbamate]: the pest or weed control at 200 ppm in data set [1] and in data set [2] was 80 to 100% throughout.

`C#CCN(C(=O)CN(C)S(C)(=O)=O)c1cn(-c2cccnc2)nc1Cl` [Compound 623, N-(3-chloro-1-(pyridin-3-yl)-1H-pyrazol-4-yl)-2-(N-methylmethylsulfonamido)-N-(prop-2-yn-1-yl)acetamide]: the pest or weed control at 200 ppm in data set [1] and in data set [2] was 80 to 100% throughout.

Take `C#CCN(C(=O)CCC(F)(F)C(F)(F)F)c1cn(-c2cccnc2)nc1Cl` [Compound 615]: the pest or weed control at 200 ppm in data set [1] lay in the range of 0 to 80%; in data set [2], 80 to 100%.

`C#CCN(C(=O)CCSCCC(F)(F)F)c1cn(-c2cccnc2)nc1C` [Compound 627, N-(3-methyl-1-(pyridin-3-yl)-1H-pyrazol-4-yl)-N-(prop-2-yn-1-yl)-3-((3,3,3-trifluoropropyl)thio)propanamide]: the pest or weed control at 200 ppm in data set [1] and in data set [2] was 80 to 100% throughout.

Take `C#CCN(C(=O)C[S+](C)[O-])c1cn(-c2cccnc2)nc1Cl` (stereo not drawn) [Compound 620]: the pest or weed control at 200 ppm in data set [1] and in data set [2] was 80 to 100% each time.

As usually defined, the melting point is the temperature, or range, at which the solid turns liquid.
